Measurements: patent US9744250B2, “Chemical model of a neurodegenerative disease, method for preparation and uses of same” (priority 2012, dated 2017)

Key:
[1] = Cell viability test in MTT; assay type: cell-based, human; conditions: human, SH-SY5Y neuroblastoma cells, 96 h of incubation, read-out: reduction of cell viability
Description: (§1) Cells from SH-SY5Y human neuroblastomas were cultured in a DMEM medium containing 4.5 g·L^−1 glucose, 10% fetal calf serum, and 1% penicillin/streptomycin, and placed in an incubator at 37° C. with 7% CO2.
(§2) In the various experiments, the SH-SY5Y cells were seeded at a density of 4×10^4 cells/mL. 24 h after seeding, the cells were exposed to the various test compounds at 37° C. for 24 h, 48 h, 72 h, or 96 h.
(§3) This test consisted of rapidly measuring cellular metabolic activity in the presence of the study compound at different concentrations, in order to conduct a dose-response study. To do this, the tetrazolium salt MTT, 3-(4,5-dimethylthiazol-2-yl)-2,5-diphenyltetrazolium bromide (Amoroso et al., Biochim Biophys Acta, 1999, 1452(2):151-60), was placed in contact with the cells. MTT is reduced to formazan by living cells that have the capacity to metabolize it, unlike dead cells. To conduct this test, SH-SY5Y neuronal cells in 48-well plates were incubated for 24 h, 48 h, 72 h, and 96 h, with furosemide pyridinium at concentrations ranging from 0 to 1000 μM. Then MTT (0.5 mg/ml final) was added to each well and incubated at 37° C. for 2 h. At the end of incubation, after carefully removing the medium, DMSO was added (200 μL) to dissolve the cell membranes and the formazan crystals formed by the living cells. The toxicity of the molecule was evaluated by determining the amount of reduced MTT, doing so by measuring the absorbance at 550 nm as this value is proportional to the number of living cells. The results were expressed as a function of the values obtained for cells treated only with the solvent used to dissolve the compound of interest. To compare the toxicity of furosemide pyridinium to that of MPP+, the cells were incubated in the presence of MPP+ (0 to 1000 μM) for 6 h. The culture medium was replaced and the cells were incubated at 37° C. for an additional 24 h (no MPP+). Cell survival was measured at the end of these 24 hours of incubation as described above. When evaluating the effect of different concentrations of α-tocopherol (vitamin E), a membrane antioxidant, the cells were pretreated for 24 h with this antioxidant before being exposed to furosemide pyridinium at a concentration of 0.5 mM under the same experimental conditions as above.

SH-SY5Y neuronal cells = assay: Cell viability test in MTT; assay type: cell-based, human
Description: as §1, §2, §3

[2] = tested on: mitochondria isolated from rat cerebral cortex; assay: Respiratory control (oxygen consumption, malate/pyruvate) of isolated cerebral cortex mitochondria; assay type: biochemical; conditions: increasing concentration
Description: The animal was then decapitated in order to collect from the brain either the cortex or the striatum, which were quickly placed in a Potter Elvejhem® containing 6 ml of extraction buffer at 4° C. (250 mM sucrose, 40 mM KCl, 2 mM EGTA, lmg/ml BSA, 20 mM Tris, pH=7.2). This mixture was homogenized to break open the cells and release the mitochondria and then centrifuged at 2000 g for 8 minutes to remove the larger membrane debris and the nuclei from the pellet. The supernatant was then recovered and centrifuged at 13,000 g for 11 minutes. The supernatant was discarded while the pellet containing a mitochondria-rich fraction was resuspended in 500 μl of respiration buffer at 4° C. (300 mM D-mannitol, 10 mM KCl, 10 mM KH2PO4, 5 mM MgCl2, pH=7.2). […]
Added to the polarography chamber (Hansatech) were 30 μl of mitochondria solution (0.2 mg), 460 μL of respiration buffer, 5 μl of test compound solution (meaning MPP+ or furosemide pyridinium) (or its solubilizing solvent). […] The effect of the compound on respiratory control was evaluated (ratio of stage 3 to 4), which corresponds to the coupling of the respiratory chain, or in other words the ATP synthesis at complex V and the oxygen consumption due to complexes I to IV. The results are expressed as percentages of the value measured for mitochondria not treated with the test compound (but treated with the solubilizing solvent).

[3] = tested on: alpha-synuclein in the striata; assay: Immunolabeling of alpha-synuclein in coronal striatum sections of exposed rats; assay type: in vivo, rat; conditions: 20 mg/kg/day oral 7 days, sacrificed 5 weeks after last dose
Description: Male albino Sprague Dawley rats (adults weighing […]) were housed in a temperature-controlled room with free access to food and water.
A platform for electrophysiological and behavioral monitoring of the rats was used. For this, a subcutaneous implant (Data Science) was placed in the rats which allowed the EEG to be recorded by telemetry, leaving the animal completely free to move about. The cage was equipped with a video camera (10 frames per second) and an infrared light to allow recordation of the animal's activity. The EEG and video sequences were recorded in sequences of 10 seconds, and a set of variables was calculated for each sequence. The use of dedicated software allowed integration of these variables over the entire recording to detect changes in the animal's activity, EEG, and circadian rhythms. Each animal served as its own control because it was recorded for 5 days prior to furosemide pyridinium administration. The solution of furosemide pyridinium (20 mg) was dissolved in dimethylsulfoxide (DMSO, 200 μl) and then diluted with water (50 ml). The solution was replaced every day and administered for 7 days in the drinking water at a dose of 20 mg/kg. The rats were then sacrificed 5 weeks after the last dose. The rats were anesthetized with pentobarbital and infused intracardially with saline ([…]), then fixed with 4% paraformaldehyde. […]

tyrosine hydroxylase = assay: Immunohistochemistry of tyrosine hydroxylase in exposed mice; assay type: in vivo, mouse; conditions: 20 mg/kg/day oral 7 days, 30 days after end of exposure
Description: Swiss mice were divided into two groups of five animals (experimental and control). The experiments were performed independently two times. The mice of the experimental group were exposed to furosemide pyridinium for 7 days at a daily dose of 20 mg/kg. The furosemide pyridinium was administered orally in the drinking water. The mice were sacrificed 30 days after the end of the furosemide pyridinium treatment.
For this, the mice were anesthetized with pentobarbital (50 mg/Kg), then an intracardiac infusion of NaCl (0.9%) was administered, followed by fixation by an infusion of 4% paraformaldehyde in 0.1M phosphate buffer, pH 7.2. The brain was removed, placed in NaCl (0.9%) at 4° C., and frozen in Tissue Tek immersed in a cold isopentane bath. Coronal sections of eight microns were obtained using a cryostat and were processed for immunohistochemistry (labeling the tyrosine hydroxylase and the Ser129-phosphorylated alpha-synuclein).

With `NS(=O)(=O)c1cc(C(=O)[O-])c(-[n+]2cccc(O)c2)cc1Cl` [furosemide pyridinium, 4-chloro-2-(3-hydroxypyridinium-1-yl)-5-sulfamoylbenzoate] the cytotoxicity at 96 h [1] was roughly 60%, the “decrease in cell survival” value (SH-SY5Y neuronal cells; 0.5 mM, 96 h) was “about 20%” and the “effect on cell survival” value (SH-SY5Y neuronal cells; 24 h of incubation, even at 1 mM) was “no significant effect”. For the same molecule, the EC50 (SH-SY5Y neuronal cells; Homo sapiens, 96 h of incubation, estimated, read-out: EC50 (cell survival)) was 973 µM, the “respiratory control of cerebral cortex mitochondria induced by malate/pyruvate” value [2] was “diminished” and the “alpha-synuclein in the striata (immunolabeling)” value [3] was “significant increase”. For the same molecule, the “labeling of tyrosine hydroxylase in the striata” value (tyrosine hydroxylase) was “net reduction”.
